Values quoted from earlier work, collected in patent publication US7422793B2, “Non-toxic corrosion-protection rinses and seals based on rare earth elements” (University of Dayton, priority 2002, dated 2008).

conditions: fluoride preparative agents; at or near 25° C. and at or near pH 7; cited from earlier work

| Molecule | Solubility in Water [mol/L] |
| --- | --- |
| F[Si-2](F)(F)(F)(F)F.[Na+].[Na+] [Sodium hexafluorosilicate] | 0.035 |

same assay, conditions: oxidizer sources; at or near 25° C. and at or near pH 7; cited from earlier work

| Molecule | Solubility in Water [wt. %] |
| --- | --- |
| OO [Hydrogen peroxide] | 60 |

same assay, conditions: pH 7; cited from earlier work

| Molecule | Solubility in Water |
| --- | --- |
| [F][Hf-2]([F])([F])([F])([F])[F].[Li+].[Li+] [Lithium hexafluorohafnate] | 0.1 mol/L |
| [F][Sb-]([F])([F])([F])([F])[F].[K+] [Potassium fluoroantimonate] | 3.7 × 10^0 mole/L |
| [F][Sb-]([F])([F])([F])([F])[F].[NH4+] [Ammonium fluoroantimonate] | 4.7 × 10^0 mole/L |
| [Li+].[Nb+5].[O-2].[O-2].[O-2] [Lithium niobate] | 0.1 mol/L |
| [Cs+].[Cs+].[F][Ti-2]([F])([F])([F])([F])[F] [Cesium hexafluorotitanate] | 0.055 mol/L |
| [Li+].[O-][Cl+2]([O-])[O-] [Lithium chlorate] | 55 mol/L |
| [Mg+2].[O-][Cl+2]([O-])[O-].[O-][Cl+2]([O-])[O-] [Magnesium chlorate] | 4.3 × 10^0 mole/L |
| [Cs+].[Cs+].[F][Zr-2]([F])([F])([F])([F])[F] [Cesium hexafluorozirconate] | 0.112 mol/L |
| Rubidium hexafluorohafnate | 0.19 mol/L |
| [Na+].[O]=[Al-]=[O] [Sodium aluminate] | 1 × 10^0 mole/L |
| O=[Te](=O)([O-])[O-].[K+].[K+] [Potassium tellurate] | 0.01 mol/L |
| Rubidium hexafluorostannate | 0.062 mol/L |
| Iron (III) hexafluorosilicate | “soluble” |
| [F][Ti-2]([F])([F])([F])([F])[F].[K+].[K+] [Potassium hexafluorotitanate] | 0.06 mol/L |
| O=[Se](=O)(O)O [Sodium selenate] | 1.2 × 10^0 mole/L |
| O=[As](=O)O[As](=O)=O [Arsenic pentoxide] | 6.5 × 10^0 mole/L |
| Vanadium pentoxide | 0.044 mol/L |
| [Li+].[O]=[Ta](=[O])[O-] [Lithium tantalate] | 0.01 mol/L |
| Rubidium heptafluoroniobate | 0.1 mol/L |
| O=[Te](=O)([O-])[O-].[Cs+].[Cs+] [Cesium tellurate] | 0.01 mol/L |
| [Cs+].[Cs+].[F][Sn-2]([F])([F])([F])([F])[F] [Cesium hexafluorostannate] | 0.079 mol/L |

| Molecule | Solubility in Water |
| --- | --- |
| CCC[N+](CCC)(CCC)CCC.[O-][Cl+3]([O-])([O-])[O-] [Pr4N^+ perchlorate] | 0.1 mol/L |
| Calcium vanadate | 0.5 mol/L |
| [F][Ti-2]([F])([F])([F])([F])[F].[Li+].[Li+] [Lithium hexafluorotitanate] | 0.05 mol/L |
| Sodium perborate | 0.17 mol/L |
| [K+].[O]=[Al][O-] [Potassium aluminate] | 1 × 10^0 mole/L |
| [K+].[K+].[O]=[Mo](=[O])([O-])[O-] [Potassium molybdate] | 775 mol/L |
| Rubidium tungstate | 50 mol/L |
| [F-].[F-].[F-].[F-].[F-].[F-].[K+].[K+].[Sn+4] [Potassium hexafluorostannate] | 0.128 mol/L |
| Manganese (II) Fluorosilicate | 4.59 × 10^0 mole/L |
| Potassium fluoroaluminate | 0.0061 mol/L |
| F[Si-2](F)(F)(F)(F)F.[NH4+].[NH4+] [Ammonium hexafluorosilicate] | 1.04 × 10^0 mole/L |
| [F][Sb-]([F])([F])([F])([F])[F].[Na+] [Sodium hexafluoroantimonate] | 4.97 × 10^0 mole/L |
| Silver (I) fluorogallate | 1 × 10^0 mole/L |
| Magnesium vanadate | 1 × 10^0 mole/L |
| Lithium germanate | 0.063 mol/L |
| Potassium niobate | 0.05 mol/L |
| [O-][Cl+3]([O-])([O-])O [Sodium perchlorate] | 12 mol/L |
| Potassium vanadate | 1 × 10^0 mole/L |
| Lithium bromate | 4.85 × 10^0 mole/L |
| F[B-](F)(F)F.[Li+] [Lithium tetrafluoroborate] | 5 × 10^0 mole/L |
| [Ce+3].[O-][Cl+3]([O-])([O-])[O-].[O-][Cl+3]([O-])([O-])[O-].[O-][Cl+3]([O-])([O-])[O-] [Cerium (III) perchlorate] | 2.0 × 10^0 mole/L |

| Molecule | Solubility in Water |
| --- | --- |
| [O-][Cl+3]([O-])([O-])[O-].[O-][Cl+3]([O-])([O-])[O-].[Zn+2] [Zinc perchlorate] | 1 × 10^0 mole/L |
| Rubidium hexafluorotitanate | 0.025 mol/L |
| [Na+].[O]=[Nb](=[O])[O-] [Sodium niobate] | 0.059 mol/L |
| [O-][Cl+3]([O-])([O-])O [Perchloric acid] | 75 wt. % |
| Sodium tungstate | 249 mol/L |
| [Na+].[Na+].[O]=[Sn]([O-])[O-] [Sodium stannate] | 2.3 × 10^0 mole/L |
| [F-].[F-].[F][Zr]([F])([F])[F].[Li+].[Li+] [Lithium hexafluorozirconate] | 0.08 mol/L |
| Cesium bromate | 0.14 mol/L |
| [F][Nb-2]([F])([F])([F])([F])([F])[F].[Li+].[Li+] [Lithium heptafluoroniobate] | 0.5 mol/L |
| O=C([O-])c1ccccc1C(=O)O[O-].[Mg+2] [Magnesium monoperoxyphthalate] | 10 mol/L |
| [Cs+].[O-][I+3]([O-])([O-])[O-] [Cesium periodate] | 0.066 mol/L |
| Potassium germanate | 1 × 10^0 mole/L |
| F[Si-2](F)(F)(F)(F)F.[Zn+2] [Zinc hexafluorosilicate] | 1.11 × 10^0 mole/L |
| [Cs+].[Cs+].[F][Hf-2]([F])([F])([F])([F])[F] [Cesium hexafluorohafnate] | 0.17 mol/L |
| Tin (IV) fluoride | 1 × 10^0 mole/L |
| Cesium germanate | 0.5 mol/L |
| [Li+].[Li+].[O]=[Mo](=[O])([O-])[O-] [Lithium molybdate] | 10 mol/L |
| [F-].[F-].[F][Hf]([F])([F])[F].[K+].[K+] [Potassium hexafluorohafnate] | 0.13 mol/L |
| [Mg+2].[O]=[Mo](=[O])([O-])[O-] [Magnesium molybdate] | 0.74 mol/L |
| [F][Sb-]([F])([F])([F])([F])[F].[Li+] [Lithium hexafluoroantimonate] | 1 × 10^0 mole/L |
| Copper (II) hexafluorosilicate | 7.4 × 10^0 mole/L |
